Results on nine compounds are retold here after patent publication US20060069132A1, “Azolecarboxamide herbicides” (priority 2004, published 2006).

Where two headings read alike, the source gives them in different places.

What all share (assay): Test A pre-/postemergence herbicide test
One assay concerns large crabgrass. It is filed as in vivo, Digitaria sanguinalis. Conditions: for pest or weed control at 500 g/ha / pest or weed control at 2000 g/ha: Digitaria sanguinalis, 240 h. The gist of the method:
(§1)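 Plants are held in greenhouse about ten days after treatment, then compared with untreated controls and scored 0 (no effect) to 100 (complete control). Preemergence dosing is a directed soil spray on sown sandy loam; postemergence dosing is spray to runoff at 2–10 cm height.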

The test system of a further assay is velvetleaf. The assay is classed as in vivo, Abutilon theophrasti. Conditions: for pest or weed control at 2000 g/ha / pest or weed control at 500 g/ha: Abutilon theophrasti, 240 h. The method in brief:
as §1

Another assay concerns barnyardgrass. The assay is classed as in vivo, Echinochloa crus-galli. To be noted: for pest or weed control at 500 g/ha / pest or weed control at 2000 g/ha: Echinochloa crus-galli, 240 h. The method in brief:
as §1

The mark [1] stands for this setting: post-emergence, Postemergence, 2000 g ai/ha, 0 to 100 scale, 0 no effect, 100 complete control, read-out: Plant response rating, Crabgrass, Large.
[2] abbreviates: pre-emergence, Preemergence, 500 g ai/ha, visual rating, 0 to 100 scale (0 no effect, 100 complete control), read-out: Crabgrass, Large plant response rating.
[3] abbreviates: post-emergence, Postemergence, 2000 g ai/ha, 0 to 100 scale, 0 no effect, 100 complete control, read-out: Plant response rating, Velvetleaf.
[4] abbreviates: post-emergence, Postemergence, 2000 g ai/ha, 0 to 100 scale, 0 no effect, 100 complete control, read-out: Plant response rating, Barnyardgrass.
The mark [5] stands for this setting: pre-emergence, Preemergence, 500 g ai/ha, visual rating, 0 to 100 scale (0 no effect, 100 complete control), read-out: Barnyardgrass plant response rating.
Where [6] appears, read: Postemergence, 500 g ai/ha, 0 to 100 scale, 0 no effect, 100 complete control.
The mark [7] stands for this setting: Postemergence, 2000 g ai/ha, 0 to 100 scale, 0 no effect, 100 complete control.
[8] abbreviates: Preemergence, 500 g ai/ha, visual rating, 0 to 100 scale (0 no effect, 100 complete control).
Setting [9] is: Preemergence, 2000 g ai/ha, visual rating, 0 to 100 scale (0 no effect, 100 complete control).
Setting [10] is: post-emergence, Postemergence, 500 g ai/ha, 0 to 100 scale, 0 no effect, 100 complete control, read-out: Crabgrass, Large plant response rating.
Setting [11] is: pre-emergence, Preemergence, 2000 g ai/ha, visual rating, 0 to 100 scale (0 no effect, 100 complete control), read-out: Crabgrass, Large plant response rating.
Setting [12] is: post-emergence, Postemergence, 500 g ai/ha, 0 to 100 scale, 0 no effect, 100 complete control, read-out: Velvetleaf plant response rating.
The mark [13] stands for this setting: pre-emergence, Preemergence, 2000 g ai/ha, visual rating, 0 to 100 scale (0 no effect, 100 complete control), read-out: Velvetleaf plant response rating.
[14] abbreviates: pre-emergence, preemergence, 500 g ai/ha, visual injury, 0 to 100 scale (0 no effect, 100 complete control), read-out: Velvetleaf plant response rating.
Where [15] appears, read: post-emergence, Postemergence, 500 g ai/ha, 0 to 100 scale, 0 no effect, 100 complete control, read-out: Barnyardgrass plant response rating.
The mark [16] stands for this setting: pre-emergence, Preemergence, 2000 g ai/ha, visual rating, 0 to 100 scale (0 no effect, 100 complete control), read-out: Barnyardgrass plant response rating.
[17] abbreviates: Preemergence, 2000 g ai/ha, 0 to 100 scale, 0 no effect, 100 complete control.
Setting [18] is: preemergence, 500 g ai/ha, visual injury, 0 to 100 scale (0 no effect, 100 complete control).

Turning to `CCn1nc(C(C)(C)C)cc1C(=O)Nc1cccc(C(=O)NCC(F)(F)F)c1` [Compound 43, 3-(1,1-dimethylethyl)-1-ethyl-N-[3-[[(2,2,2-trifluoroethyl)amino]carbonyl]-phenyl]-1H-pyrazole-5-carboxamide], the pest or weed control at 500 g/ha in the assay on large crabgrass (post-emergence, Postemergence, 500 g ai/ha, 0 to 100 scale, 0 no effect, 100 complete control, read-out: Plant response rating, Crabgrass, Large) is 65%; with large crabgrass (setting [2]), 75%; in the assay with velvetleaf (pre-emergence, Preemergence, 500 g ai/ha, visual rating, 0 to 100 scale (0 no effect, 100 complete control), read-out: Velvetleaf plant response rating) it was 5%; in the assay with barnyardgrass (post-emergence, Postemergence, 500 g ai/ha, 0 to 100 scale, 0 no effect, 100 complete control, read-out: Plant response rating, Barnyardgrass), 90%; with barnyardgrass (setting [5]) it was 60%. In addition, the pest or weed control at 2000 g/ha stood at 90% in the assay on large crabgrass (setting [1]); 90% in the assay on large crabgrass (pre-emergence, Preemergence, 2000 g ai/ha, 0 to 100 scale, 0 no effect, 100 complete control, read-out: Crabgrass, Large plant response rating); 30% in the assay on velvetleaf (setting [3]); 60% with velvetleaf (pre-emergence, Preemergence, 2000 g ai/ha, 0 to 100 scale, 0 no effect, 100 complete control, read-out: Velvetleaf plant response rating); 100% with barnyardgrass (setting [4]); 90% in the assay on barnyardgrass (pre-emergence, Preemergence, 2000 g ai/ha, 0 to 100 scale, 0 no effect, 100 complete control, read-out: Barnyardgrass plant response rating).
`C=CCn1nc(C(C)(C)C)cc1C(=O)Nc1cccc(C(C)=NO)c1` [Compound 117]: the “Crabgrass, Large plant response rating” value with large crabgrass (setting [6]) is listed as 40; in the assay with large crabgrass (setting [8]), 45; in the assay on large crabgrass (setting [9]) it was 75. Also, the “Plant response rating, Crabgrass, Large” value in the assay on large crabgrass (setting [7]) is 65. Besides, the “Velvetleaf plant response rating” value came out at 50 with velvetleaf (setting [6]), 50 in the assay with velvetleaf (setting [8]) and 65 with velvetleaf (setting [9]). Also, in the assay on velvetleaf (setting [7]), the “Plant response rating, Velvetleaf” value is recorded as 65. For the same compound, the “Barnyardgrass plant response rating” value in the assay with barnyardgrass (setting [6]) came out at 45; in the assay with barnyardgrass (setting [8]), 30; with barnyardgrass (setting [9]), 70. The “Plant response rating, Barnyardgrass” value in the assay on barnyardgrass (setting [7]) turned out to be 75.
Regarding `CCn1nc(C(C)(C)C)cc1C(=O)Nc1cccc(C(=O)OC)n1` [Compound 143, methyl 6-[[[3-(1,1-dimethylethyl)-1-ethyl-1H-pyrazol-5-yl]carbonyl]amino]-2-pyridinecarboxylate], the pest or weed control at 500 g/ha is 20% in the assay with large crabgrass (setting [10]); 0% with large crabgrass (setting [2]); 0% with velvetleaf (setting [12]); 0% with velvetleaf (setting [14]); 10% in the assay on barnyardgrass (setting [15]); 0% in the assay with barnyardgrass (setting [5]). The pest or weed control at 2000 g/ha with large crabgrass (setting [1]) was 30%; in the assay on large crabgrass (setting [11]) it was 15%; in the assay on velvetleaf (setting [3]), 15%; in the assay on velvetleaf (setting [13]), 0%; with barnyardgrass (setting [4]) it was 25%; with barnyardgrass (setting [16]), 0%.
As for `CCOC(=O)c1cccc(NC(=O)c2cc(C(C)(C)C)nn2CCF)c1` [Compound 79], the entries for the “Plant response rating, Crabgrass, Large” value with large crabgrass (setting [6]) and in the assay with large crabgrass (setting [7]) were 20 and 55, respectively. In addition, the entries for the “Crabgrass, Large plant response rating” value in the assay on large crabgrass (setting [8]) and with large crabgrass (setting [17]) were 50 and 55, respectively. In the assay with velvetleaf (setting [7]), the “Plant response rating, Velvetleaf” value is 50. Besides, the “Velvetleaf plant response rating” value worked out at 20 in the assay on velvetleaf (setting [8]) and 70 in the assay on velvetleaf (setting [9]). Moreover, the “Plant response rating, Barnyardgrass” value with barnyardgrass (setting [6]) and with barnyardgrass (setting [7]) was 40 in each case. Further, the “Barnyardgrass plant response rating” value was found to be 20 in the assay with barnyardgrass (setting [8]) and 35 with barnyardgrass (setting [17]).
Consider `CCOC(=O)c1ccc(F)c(NC(=O)C2CC(C(C)(C)C)=NN2CC)c1` (stereo not drawn) [Compound 267, ethyl 3-[[[3-(1,1-dimethylethyl)-1-ethyl-4,5-dihydro-1H-pyrazol-5-yl]carbonyl]amino]-4-fluorobenzoate], for which the pest or weed control at 500 g/ha with large crabgrass (setting [10]) stood at 45%; with large crabgrass (pre-emergence, preemergence, 500 g ai/ha, visual injury, 0 to 100 scale (0 no effect, 100 complete control), read-out: Crabgrass, Large plant response rating) it was 15%; in the assay with velvetleaf (setting [12]), 30%; with velvetleaf (setting [14]), 25%; with barnyardgrass (setting [15]), 40%; with barnyardgrass (pre-emergence, preemergence, 500 g ai/ha, visual injury, 0 to 100 scale (0 no effect, 100 complete control), read-out: Barnyardgrass plant response rating) it was 70%. In addition, the pest or weed control at 2000 g/ha was 75% in the assay with large crabgrass (setting [1]); 90% with large crabgrass (setting [11]); 35% in the assay with velvetleaf (setting [3]); 60% in the assay on velvetleaf (setting [13]); 65% in the assay with barnyardgrass (setting [4]); 80% in the assay with barnyardgrass (setting [16]).
As to `CCn1nc(C(C)(C)C)cc1C(=O)Nc1cc(C(=O)OC)ccn1` [Compound 151, methyl 2-[[[3-(1,1-dimethylethyl)-1-ethyl-1H-pyrazol-5-yl]carbonyl]amino]-4-pyridinecarboxylate], the pest or weed control at 500 g/ha in the assay on large crabgrass (setting [10]) is 5%; in the assay with large crabgrass (setting [2]), 0%; with velvetleaf (setting [12]), 35%; with velvetleaf (setting [14]), 0%; in the assay with barnyardgrass (setting [15]), 10%; in the assay with barnyardgrass (setting [5]), 0%. The pest or weed control at 2000 g/ha in the assay with large crabgrass (setting [1]) worked out at 10%; in the assay with large crabgrass (setting [11]) it was 0%; with velvetleaf (setting [3]) it was 60%; in the assay with velvetleaf (setting [13]) it was 10%; in the assay with barnyardgrass (setting [4]), 10%; in the assay with barnyardgrass (setting [16]) it was 0%.
`CCn1nc(C(C)(C)C)cc1C(=O)Nc1cccc(OC(C)C)c1` [Compound 273]: the entries for the “Crabgrass, Large plant response rating” value with large crabgrass (setting [6]), in the assay with large crabgrass (setting [9]) and in the assay on large crabgrass (setting [18]) were 25, 100 and 75, respectively. Besides, in the assay with large crabgrass (setting [7]), the “Plant response rating, Crabgrass, Large” value is recorded as 65. The “Velvetleaf plant response rating” value in the assay on velvetleaf (setting [6]) is recorded as 90; with velvetleaf (setting [9]), 75; in the assay on velvetleaf (setting [18]) it was 60. In addition, in the assay with velvetleaf (setting [7]), the “Plant response rating, Velvetleaf” value amounted to 95. The “Barnyardgrass plant response rating” value in the assay on barnyardgrass (setting [6]) was determined as 55; in the assay on barnyardgrass (setting [9]), 95; in the assay on barnyardgrass (setting [18]), 70. In addition, the “Plant response rating, Barnyardgrass” value in the assay on barnyardgrass (setting [7]) stood at 75.
Consider `CCn1nc(C(C)(C)C)cc1C(=O)Nc1cccc(C(=O)NOC)c1` [Compound 67], for which the “Plant response rating, Crabgrass, Large” value with large crabgrass (setting [6]) and in the assay with large crabgrass (setting [7]) was 20 each time. Besides, the “Crabgrass, Large plant response rating” value in the assay on large crabgrass (setting [8]) was 15; in the assay with large crabgrass (setting [17]) it was 55. Moreover, the “Plant response rating, Velvetleaf” value in the assay on velvetleaf (setting [7]) amounted to 15. For the same compound, the “Velvetleaf plant response rating” value with velvetleaf (setting [8]) is given as 30; with velvetleaf (setting [9]), 75. Also, the “Plant response rating, Barnyardgrass” value was 0 in the assay on barnyardgrass (setting [6]) and 25 in the assay with barnyardgrass (setting [7]). Moreover, the results for the “Barnyardgrass plant response rating” value in the assay with barnyardgrass (setting [8]) and with barnyardgrass (setting [17]) were 0 and 30, respectively.
Consider `CCn1nc(C(C)(C)C)cc1C(=O)Nc1cccc(C(=O)N2CC=CC2)c1` [Compound 286], for which the results for the “Crabgrass, Large plant response rating” value in the assay with large crabgrass (setting [6]), in the assay on large crabgrass (setting [9]) and in the assay on large crabgrass (setting [18]) were 20, 70 and 15, respectively. In addition, in the assay on large crabgrass (setting [7]), the “Plant response rating, Crabgrass, Large” value is 25. Moreover, the “Velvetleaf plant response rating” value turned out to be 30 in the assay with velvetleaf (setting [6]), 70 in the assay on velvetleaf (setting [9]) and 20 in the assay on velvetleaf (setting [18]). In the assay with velvetleaf (setting [7]), the “Plant response rating, Velvetleaf” value turned out to be 50. Moreover, the “Barnyardgrass plant response rating” value was 60 in the assay on barnyardgrass (setting [6]), 85 in the assay on barnyardgrass (setting [9]) and 75 in the assay on barnyardgrass (setting [18]). For the same compound, in the assay with barnyardgrass (setting [7]), the “Plant response rating, Barnyardgrass” value stood at 80.
